In US20220235049A1, “SUBSTITUTED PYRROLO [2, 3-b] PYRIDINE AND PYRAZOLO [3,4-b] PYRIDINE DERIVATIVES AS PROTEIN KINASE INHIBITORS” (Fochon Pharmaceuticals, Ltd., priority 2019, published 2022) one finds IC50 data, which are given here for 19 molecules.

For this test, the system named is DOHH2 cells. The experiment in a line: Cell proliferation assay in DOHH2 cells (MTS). It is filed as cell-based. The procedure:
To investigate whether a compound is able to inhibit the activity of BTK in cells, a mechanism-based assay using DOHH2 (DSMZ catalog #: ACC47) cell was developed. In this assay, inhibition of BTK was detected by the inhibition of DOHH2 cells proliferation. Cells were collected and plated onto 96-well plates at the optimized cell density (5000 cells/well). Plates were incubated at 37° C., with 5% CO2 for 4 h. Compounds were serially diluted and added to the plates with the final concentrations as 10000, 3333.3, 1111.1, 370.4, 123.5, 41.2, 13.7, 4.6 and 1.5 nM. Plates were incubated at 37° C., with 5% CO2 for 120 h. An aliquot of 20 μL MTS/100 μL medium mixture solution were added to each well and the plates were incubated for exactly 2 h. The reaction was stopped by adding 25 μL 10% SDS to each well. The absorbance was measured by a microplate reader at 490 nm and 650 nm (reference wavelength). IC50 was calculated using GraphPad Prism 5.0.
Select compounds prepared as described above were assayed according to the biological procedures described herein.

The structures appear in SMILES notation.

For the molecule `COc1cc(Oc2ccccc2F)cnc1C(=O)c1c[nH]c2nccc(N[C@@H]3CC[C@@H](CO)OC3)c12` [Example 110, (5-(2-fluorophenoxy)-3-methoxypyridin-2-yl)(4-(((3R,6S)-6-(hydroxymethyl)tetrahydro-2H-pyran-3-yl)amino)-1H-pyrrolo[2,3-b]pyridin-3-yl)methanone], 95 nM corresponded to half-maximal inhibition (Homo sapiens, DOHH-2, 120 h) (IC50).
Still for that read-out and setting: with `COc1cnc2[nH]cc(C(=O)c3ccc(Oc4c(F)cccc4F)cc3Cl)c2c1N[C@@H]1CC[C@@H](CO)OC1` [Example 186, (2-chloro-4-(2,6-difluorophenoxy)phenyl)(4-(((3R,6S)-6-(hydroxymethyl)tetrahydro-2H-pyran-3-yl)amino)-5-methoxy-1H-pyrrolo[2,3-b]pyridin-3-yl)methanone] the figure was 17 nM; with `COc1cnc2[nH]cc(C(=O)c3c(C)cc(Oc4ccccc4F)cc3F)c2c1N[C@@H]1CC[C@@H](CO)OC1` [Example 132, (2-fluoro-4-(2-fluorophenoxy)-6-methylphenyl)(4-(((3R,6S)-6-(hydroxymethyl)tetrahydro-2H-pyran-3-yl)amino)-5-methoxy-1H-pyrrolo[2,3-b]pyridin-3-yl)methanone], 7 nM; with `COc1cnc2[nH]cc(C(=O)c3ccc(Oc4ccccc4F)cc3F)c2c1N[C@@H]1CCC(CO)(CO)OC1` [Example 164, (R)-(4-((6,6-bis(hydroxymethyl)tetrahydro-2H-pyran-3-yl)amino)-5-methoxy-1H-pyrrolo[2,3-b]pyridin-3-yl)(2-fluoro-4-(2-fluorophenoxy)phenyl)methanone], 22 nM.
The same measure, in the same setting: as for `COc1cnc2[nH]cc(C(=O)c3ccc(Oc4ccccc4F)cc3F)c2c1N[C@@H]1CC[C@@H](CNS(C)(=O)=O)OC1` [Example 161, N-(((2S,5R)-5-((3-(2-fluoro-4-(2-fluorophenoxy)benzoyl)-5-methoxy-1H-pyrrolo[2,3-b]pyridin-4-yl)amino)tetrahydro-2H-pyran-2-yl)methyl)methanesulfonamide], the figure is 14 nM.
The molecule `O=C(c1ccc(Oc2c(F)cccc2F)cc1Cl)c1c[nH]c2ncc(Cl)c(N[C@@H]3CC[C@@H](CO)OC3)c12` [Example 189, (5-chloro-4-(((3R,6S)-6-(hydroxymethyl)tetrahydro-2H-pyran-3-yl)amino)-1H-pyrrolo[2,3-b]pyridin-3-yl)(2-chloro-4-(2,6-difluorophenoxy)phenyl)methanone] displayed an IC50 (Homo sapiens, DOHH-2, 120 h) of 32 nM.
Molecule `COc1cnc2[nH]cc(C(=O)c3ccc(Oc4ccccc4)cc3C)c2c1N[C@@H]1CC[C@@H](CO)OC1` [Example 134, (4-(((3R,6S)-6-(hydroxymethyl)tetrahydro-2H-pyran-3-yl)amino)-5-methoxy-1H-pyrrolo[2,3-b]pyridin-3-yl)(2-methyl-4-phenoxyphenyl)methanone] displayed an IC50 (Homo sapiens, DOHH-2, 120 h) of 1 nM.
The same measure, in the same setting: as for `Cc1cc(Oc2ccccc2F)cc(F)c1C(=O)c1c[nH]c2nccc(N[C@@H]3CC[C@@H](CO)OC3)c12` [Example 130, (2-fluoro-4-(2-fluorophenoxy)-6-methylphenyl)(4-(((3R,6S)-6-(hydroxymethyl)tetrahydro-2H-pyran-3-yl)amino)-1H-pyrrolo[2,3-b]pyridin-3-yl)methanone], the figure is 36 nM.
With `O=C(c1ccc(Oc2c(F)cccc2F)cc1)c1c[nH]c2ncc(F)c(N[C@@H]3CC[C@@H](CO)OC3)c12` [Example 183, (4-(2,6-difluorophenoxy)phenyl)(5-fluoro-4-(((3R,6S)-6-(hydroxymethyl)tetrahydro-2H-pyran-3-yl)amino)-1H-pyrrolo[2,3-b]pyridin-3-yl)methanone], where the note is “Homo sapiens, DOHH-2, 120 h”, the half-inhibitory concentration (IC50) is 17 nM.
On the same count and under the same terms, as for `O=C(c1ccc(Oc2c(F)cccc2F)cc1Cl)c1c[nH]c2ncc(F)c(N[C@@H]3CC[C@@H](CO)OC3)c12` [Example 187, (2-chloro-4-(2,6-difluorophenoxy)phenyl)(5-fluoro-4-(((3R,6S)-6-(hydroxymethyl)tetrahydro-2H-pyran-3-yl)amino)-1H-pyrrolo[2,3-b]pyridin-3-yl)methanone], the figure is 52 nM; as for `O=C(c1ccc(Oc2ccccc2)cc1Cl)c1c[nH]c2ncc(F)c(N[C@@H]3CC[C@@H](CO)OC3)c12` [Example 6, (2-chloro-4-phenoxyphenyl)(5-fluoro-4-(((3R,6S)-6-(hydroxymethyl)tetrahydro-2H-pyran-3-yl)amino)-1H-pyrrolo[2,3-b]pyridin-3-yl)methanone], 89 nM.
Turning to `CCOc1cnc2[nH]cc(C(=O)c3ccc(Oc4ccccc4F)cc3C)c2c1N[C@@]12CO[C@H](CO)C1C2` (single isomer, unassigned) [Example 171], half-maximal inhibition (120 h) (IC50) required 2 nM.
`O=C(c1ccc(Oc2ccccc2F)cc1Cl)c1c[nH]c2ncc(F)c(N[C@@H]3CC[C@@H](CO)OC3)c12` [Example 125, (2-chloro-4-(2-fluorophenoxy)phenyl)(5-fluoro-4-(((3R,6S)-6-(hydroxymethyl)tetrahydro-2H-pyran-3-yl)amino)-1H-pyrrolo[2,3-b]pyridin-3-yl)methanone]: the IC50 (Homo sapiens, DOHH-2, 120 h) stood at 1 nM.
Molecule `Cc1cc(Oc2ccccc2F)ccc1C(=O)c1c[nH]c2nccc(N[C@@H]3CC[C@@H](CO)OC3)c12` [Example 46, (4-(2-fluorophenoxy)-2-methylphenyl)(4-(((3R,6S)-6-(hydroxymethyl)tetrahydro-2H-pyran-3-yl)amino)-1H-pyrrolo[2,3-b]pyridin-3-yl)methanone] gave a concentration for half-maximal inhibition (IC50) (Homo sapiens, DOHH-2, 120 h) of 1 nM.
On the same count and under the same terms, with `COc1cnc2[nH]cc(C(=O)c3ccc(Oc4ccccc4F)cc3Cl)c2c1N[C@@H]1CC[C@@H](CO)OC1` [Example 77, (2-chloro-4-(2-fluorophenoxy)phenyl)(4-(((3R,6S)-6-(hydroxymethyl)tetrahydro-2H-pyran-3-yl)amino)-5-methoxy-1H-pyrrolo[2,3-b]pyridin-3-yl)methanone] the figure was 1 nM.
Take `COc1cc(Oc2ccccc2F)ccc1C(=O)c1c[nH]c2ncc(OC)c(N[C@@H]3CC[C@@H](CO)OC3)c12` [Example 81, (4-(2-fluorophenoxy)-2-methoxyphenyl)(4-(((3R,6S)-6-(hydroxymethyl)tetrahydro-2H-pyran-3-yl)amino)-5-methoxy-1H-pyrrolo[2,3-b]pyridin-3-yl)methanone]: half-maximal inhibition (Homo sapiens, DOHH-2, 120 h) (IC50) required 19 nM.
In turn, `N#Cc1cnc2[nH]cc(C(=O)c3ccc(Oc4ccccc4)cc3)c2c1N[C@@H]1CC[C@@H](CO)OC1` [Example 29, 4-(((3R,6S)-6-(hydroxymethyl)tetrahydro-2H-pyran-3-yl)amino)-3-(4-phenoxybenzoyl)-1H-pyrrolo[2,3-b]pyridine-5-carbonitrile] showed a half-maximal inhibitory concentration (IC50) (Homo sapiens, DOHH-2, 120 h) of 99 nM.
For the setting “Homo sapiens, DOHH-2, 120 h”, `O=C(c1ccc(Oc2ccccc2F)cc1F)c1c[nH]c2ncc(F)c(N[C@@H]3CC[C@@H](CO)OC3)c12` [Example 115, (5-fluoro-4-(((3R,6S)-6-(hydroxymethyl)tetrahydro-2H-pyran-3-yl)amino)-1H-pyrrolo[2,3-b]pyridin-3-yl)(2-fluoro-4-(2-fluorophenoxy)phenyl)methanone] returned an IC50 of 5 nM.
With `Cc1cc(Oc2ccccc2)ccc1C(=O)c1c[nH]c2nccc(N[C@@H]3CC[C@@H](CO)OC3)c12` [Example 13, (4-(((3R,6S)-6-(hydroxymethyl)tetrahydro-2H-pyran-3-yl)amino)-1H-pyrrolo[2,3-b]pyridin-3-yl)(2-methyl-4-phenoxyphenyl)methanone], where the note is “Homo sapiens, DOHH-2, 120 h”, the IC50 was found to be 19 nM.
